From patent publication US20230116137A1, “METHODS FOR TREATING COLORECTAL AND METASTATIC COLORECTAL CANCERS” (Isofol Medical AB, priority 2017, published 2023)
Counter-ions that a name gives are not always drawn. Like-named read-outs stand apart in the source and are kept apart here.

Key:
[1] = tested on: solid tumours; details: cited from earlier work
[2] = tested on: colorectal tumors; details: cited from earlier work
[3] = tested on: metastatic colorectal cancer; details: Phase II trial, previously untreated metastatic colorectal cancer; cited from earlier work
[4] = tested on: pancreas cancer; details: CoFactor combined with 5-FU, phase I/II; cited from earlier work
[5] = tested on: colorectal cancer; details: Phase IIb study; cited from earlier work
[6] = tested on: solid tumors of stage IV metastatic colorectal cancer; assay: Treatment of patients diagnosed with stage IV metastatic colorectal cancer with bevacizumab, oxaliplatin, 5-FU and 6R-MTHF; CT measurement of lesions, RECIST 1.1; format: in vivo, human
From the text: The ORR may be calculated as follows: ORR=sum of partial responses plus complete responses as per RECIST 1.1 (a set of published rules that define when tumours in cancer patients progress during treatments)([Eisenhauer E A, Therasse P, Bogaerts J, Schwartz L H, Sargent D, Ford R, et al. New response evaluation criteria in solid tumours: revised RECIST guideline (version 1.1). Eur J Cancer. 2009 January; 45(2):228-47; incorporated by reference in its entirety]. As defined herein, a “complete response (CR)” means the disappearance of all target lesions. Any pathological lymph nodes (whether target or non-target) must have reduction in short axis to <10 mm. As used herein, a “partial response (PR)” means at least a 30% decrease in the sum of diameters of target lesions, taking as reference the baseline sum diameters.As used herein, “progressive disease (PD)” means at least a 20% increase in the sum of diameters of target lesions, taking as reference the smallest sum on study (this includes the baseline sum if that is the smallest on study). […] The appearance of one or more new lesions is also considered progression.
(§1) Bevacizumab was administered at a dose of 5 mg/kg by intravenous infusion over 30 to 90 minutes. Following administration of bevacizumab, oxaliplatin was administered at a dose of 85 mg/m^2 by intravenous infusion between 15 and 120 minutes. Following oxaliplatin administration, 5-fluorouracil (5-FU) at a dose of 400 mg/m^2 was administered by intravenous bolus within 5 minutes. Thirty minutes after administration of the 5-FU intravenous bolus, 6R-MTHF at a dose of 60 mg/m^2 was administered by intravenous bolus (completed within 3 minutes). About 5 minutes after completion of the 6R-MTHF intravenous bolus administration, an intravenous infusion of 5-FU at a dose of 2,400 mg/m^2 was initiated. The infusion was paused to administer an intravenous bolus of 6R-MTHF at a dose of 60 mg/m^2 (completed within 3 minutes). The 5-FU infusion was maintained for 46 hours.
as §1, §1

Compound: Nc1nc2c(c(=O)[nH]1)N(C=O)C(CNc1ccc(C(=O)N[C@@H](CCC(=O)O)C(=O)O)cc1)CN2 (some centres unmarked) [LV, calcium salt of 5-formyl-5,6,7,8-tetrahydrofolic acid]
- overall response rate ([1]; LV added to 5-FU): over 20%
- response rate ([2]; LV added to 5-FU): 21%

Compound: O=c1[nH]cc(F)c(=O)[nH]1 [5-FU, 5-fluorouracil]
- overall response rate ([1]; 5-FU alone): 10-15%
- response rate ([2]; 5-FU given as a monotherapy): around 10%

Compound: Nc1nc(=O)c2c([nH]1)NCC1CN(c3ccc(C(=O)N[C@@H](CCC(=O)[O-])C(=O)[O-])cc3)CN21.[Ca+2] (stereo partly drawn) [CoFactor, (dl)-5,10,-methylenepteroyl-monoglutamate calcium salt]
- overall response rate [3]: 35%
- clinical benefit, defined as stable disease or tumor response, proportion of patients [4]: 40%
- efficacy and safety versus leucovorin arm [5]: no significant differences

Compound: Nc1nc2c(c(=O)[nH]1)N1CN(c3ccc(C(=O)N[C@@H](CCC(=O)O)C(=O)O)cc3)C[C@H]1CN2 [6R-MTHF, [6R]-5,10-methylene tetrahydrofolate]
- tumor response ([6]; Example 2 patient, second-line, 8-week treatment period): stable disease
- size of lesions (CT) ([6]; Example 2 patient, second-line, baseline 25, 13 and 12 mm (abdomen), after 8 weeks (CT at 10 weeks plus 2 days)): unchanged in size
- size of lesion ([6]; Example 3 patient, second-line, 9 mm lesion, between 16 and 24 weeks): unchanged in size
- tumor response ([6]; Example 3 patient, second-line, after 8 weeks): partial response and no progression
- tumor response ([6]; Example 3 patient, second-line, after 16 weeks): partial response and no progression
- fate of 10 mm lesion ([6]; Example 3 patient, second-line, baseline 10 and 16 mm (liver and lung), 8 weeks): disappearance
- size of lesion (CT-verified) ([6]; Example 3 patient, second-line, baseline 16 mm lesion, 8 weeks): 13 mm
- tumor response ([6]; Example 3 patient, second-line, between 16 and 24 weeks): no progression
- size of lesion (CT-verified) ([6]; Example 3 patient, second-line, lesion 16 mm at baseline, 13 mm at 8 weeks, after 16 weeks): 9 mm
- tumor response ([6]; Example 4 patient, second-line, 8-week treatment period): stable disease
- size of lesion ([6]; Example 4 patient, second-line, baseline 35 mm (liver), after 8 weeks): unchanged in size
- size of lesion ([6]; Example 4 patient, second-line, baseline 35 mm (liver), after 16 and 24 weeks): unchanged in size
- tumor response ([6]; Example 4 patient, second-line, through 24 weeks): no progression
- size of lesion ([6]; Example 5 patient, second-line, baseline 80 mm (liver), after 8 weeks): 96 mm
- tumor response ([6]; Example 6 patient, second-line, 8-week treatment period): stable disease
- size of lesion ([6]; Example 6 patient, second-line, 41 mm lesion (baseline 44 mm), after 16 weeks): unchanged in size
- size of lesion ([6]; Example 6 patient, second-line, baseline 44 mm (liver), after 8 weeks): 41 mm
- tumor response ([6]; Example 6 patient, second-line, through 16 weeks): stable disease and no progression
- tumor response ([6]; Example 7 patient, second-line, 8-week treatment period): stable disease and no progression
- size of lesion ([6]; Example 7 patient, second-line, baseline 22 mm (liver), after 8 weeks): unchanged in size
- size of lesion ([6]; Example 7 patient, second-line, baseline 22 mm (liver), after additional four cycles (8 weeks)): unchanged in size
- tumor response ([6]; Example 7 patient, second-line, through 16 weeks): no progression
- tumor response ([6]; Example 8 patient, first-line, 8-week treatment period): stable disease and no progression
- size of lesion ([6]; Example 8 patient, first-line, baseline 72 mm (liver), after 8 weeks): 59 mm
- size of lesion ([6]; Example 8 patient, first-line, baseline 72 mm, 59 mm at 8 weeks, after 16 weeks): 53 mm
- tumor response ([6]; Example 8 patient, first-line, through 16 weeks): stable disease and no progression
- tumor response ([6]; Example 9 patient, second-line, 8-week treatment period): stable disease and no progression
- tumor response ([6]; Example 9 patient, second-line, 16-week treatment period): stable disease and no progression
- size of lesion ([6]; Example 9 patient, second-line, baseline 57 mm (abdomen), after 8 weeks): 56 mm
- size of lesion ([6]; Example 9 patient, second-line, baseline 57 mm, 56 mm at 8 weeks, after 16 weeks): 57 mm
- tumor response ([6]; Example 10 patient, second-line, 8-week treatment period): stable disease and no progression
- tumor response ([6]; Example 10 patient, second-line, 16-week treatment period): stable disease and no progression
- size of lesion ([6]; Example 10 patient, second-line, 188 mm lesion (baseline 250 mm), after 16 weeks): unchanged in size
- size of lesion ([6]; Example 10 patient, second-line, baseline 250 mm (abdomen), after 8 weeks): 188 mm
- size of lesion ([6]; Example 11 patient, first-line, baseline 77 mm (liver), after 8 weeks): 89 mm
- tumor response ([6]; Example 12 patient, second-line, 8-week treatment period): stable disease
- size of lesion ([6]; Example 12 patient, second-line, baseline 26 mm (lung), after 8 weeks): 30 mm
